For 18 molecules, melting point results are on record in patent US6653330B2, “Amide-type triazole compounds” (Sankyo Company, Limited, priority 2000, dated 2003).

For orientation: melting point means the temperature of the solid-liquid transition. The molecule `C[C@@H](S[C@H]1CO[C@H](c2ccc(C(=O)Nc3ccc(C#N)c4ccccc34)cc2)OC1)[C@](O)(Cn1cncn1)c1ccc(F)cc1F` [Example 19, N-(4-Cyano-1-naphthyl)-4-[trans-5-[[(1R,2R)-2-(2,4-difluorophenyl)-2-hydroxy-1-methyl-3-(1H-1,2,4-triazol-1-yl)propyl]thio]-1,3-dioxan-2-yl]benzamide] had a melting point of 109 °C.
In the case of `C[C@@H](S[C@H]1CO[C@H](c2ccc(C(=O)Nc3ccc([N+](=O)[O-])cc3)cc2)OC1)[C@](O)(Cn1cncn1)c1ccc(F)cc1F` [Example 18] it was 189 °C.
For the molecule `C[C@@H](S[C@H]1CO[C@H](c2ccc(C(=O)Nc3ccncc3)cc2)OC1)[C@](O)(Cn1cncn1)c1ccc(F)cc1F` [Example 17, 4-[trans-5-[[(1R,2R)-2-(2,4-Difluorophenyl)-2-hydroxy-1-methyl-3-(1H-1,2,4-triazol-1-yl)propyl]thio]-1,3-dioxan-2-yl]-N-(4-pyridyl)benzamide], the melting point came out at 133 °C.
In the case of `CC(=O)Oc1ccc(NC(=O)c2ccc([C@H]3OC[C@H](S[C@H](C)[C@](O)(Cn4cncn4)c4ccc(F)cc4F)CO3)cc2)cc1` [Example 24, 4′-Acetoxy-4-[trans-5-[[(1R,2R)-2-(2,4-difluorophenyl)-2-hydroxy-1-methyl-3-(1H-1,2,4-triazol-1-yl)propyl]thio]-1,3-dioxan-2-yl]benzanilide] it was 127 °C.
For `C[C@@H](S[C@H]1CO[C@H](c2ccc(C(=O)Nc3c(F)c(F)c(C#N)c(F)c3F)cc2)OC1)[C@](O)(Cn1cncn1)c1ccc(F)cc1F` [Example 20, 4′-Cyano-4-[trans-5-[[(1R,2R)-2-(2,4-difluorophenyl)-2-hydroxy-1-methyl-3-(1H-1,2,4-triazol-1-yl)propyl]thio]-1,3-dioxan-2-yl]-2′,3′,5′,6′-tetrafluorobenzanilide] the value was 182 °C.
For `C[C@@H](S[C@H]1CO[C@H](c2ccc(C(=O)Nc3ccc(C#N)c(C#N)c3)cc2)OC1)[C@](O)(Cn1cncn1)c1ccc(F)cc1F` [Example 21, 3′,4′-Dicyano-4-[trans-5-[[(1R,2R)-2-(2,4-difluorophenyl)-2-hydroxy-1-methyl-3-(1H-1,2,4-triazol-1-yl)propyl]thio]-1,3-dioxan-2-yl]benzanilide] the value was 182 °C.
Turning to `C[C@@H](S[C@H]1CO[C@H](c2ccc(C(=O)Nc3ccc(C#N)cc3)cc2)OC1)[C@](O)(Cn1cncn1)c1ccc(F)cc1F` [Example 2, 4′-Cyano-4-[trans-5-[[(1R,2R)-2-(2,4-difluorophenyl)-2-hydroxy-1-methyl-3-(1H-1,2,4-triazol-1-yl)propyl]thio]-1,3-dioxan-2-yl]benzanilide], the melting point is 176 °C.
For `C[C@@H](S[C@H]1CO[C@H](c2ccc(C(=O)Nc3ccc(C#N)cc3F)cc2)OC1)[C@](O)(Cn1cncn1)c1ccc(F)cc1F` [Example 25, 4′-Cyano-2′-fluoro-4-[trans-5-[[(1R,2R)-2-(2,4-difluorophenyl)-2-hydroxy-1-methyl-3-(1H-1,2,4-triazol-1-yl)propyl]thio]-1,3-dioxan-2-yl]benzanilide] the value was 136 °C; for `C[C@@H](S[C@H]1CO[C@H](c2ccc(C(=O)Nc3nc4ccccc4s3)cc2)OC1)[C@](O)(Cn1cncn1)c1ccc(F)cc1F` [Example 28, N-(Benzothiazol-2-yl)-4-[trans-5-[[(1R,2R)-2-(2,4-difluorophenyl)-2-hydroxy-1-methyl-3-(1H-1,2,4-triazol-1-yl)propyl]thio]-1,3-dioxan-2-yl]benzamide], 107 °C; for `C[C@@H](S[C@H]1CO[C@H](c2ccc(C(=O)Nc3ccc(C#N)c(Cl)c3)cc2)OC1)[C@](O)(Cn1cncn1)c1ccc(F)cc1F`, 115 °C.
`C[C@@H](S[C@H]1CO[C@H](c2ccc(C(=O)Nc3ccc(Br)cc3)cc2)OC1)[C@](O)(Cn1cncn1)c1ccc(F)cc1F` [Example 15, 4′-Bromo-4-[trans-5-[[(1R,2R)-2-(2,4-difluorophenyl)-2-hydroxy-1-methyl-3-(1H-1,2,4-triazol-1-yl)propyl]thio]-1,3-dioxan-2-yl]benzanilide] had a melting point of 221 °C.
In the case of `C[C@@H](S[C@H]1CO[C@H](c2ccc(C(=O)NCc3cccc4ccccc34)cc2)OC1)[C@](O)(Cn1cncn1)c1ccc(F)cc1F` [Example 29, 4-[trans-5-[[(1R,2R)-2-(2,4-Difluorophenyl)-2-hydroxy-1-methyl-3-(1H-1,2,4-triazol-1-yl)propyl]thio]-1,3-dioxan-2-yl]-N-[(1-naphthyl)methyl]benzamide] it was 97 °C.
In the case of `C[C@@H](S[C@H]1CO[C@H](c2ccc(C(=O)Nc3ccc(C(F)(F)F)cc3)cc2)OC1)[C@](O)(Cn1cncn1)c1ccc(F)cc1F` [Example 11, 4-[trans-5-[[(1R,2R)-2-(2,4-Difluorophenyl)-2-hydroxy-1-methyl-3-(1H-1,2,4-triazol-1-yl)propyl]thio]-1,3-dioxan-2-yl]-4′-(trifluoromethyl)benzanilide] it was 210 °C; in that of `C[C@@H](S[C@H]1CO[C@H](c2ccc(C(=O)Nc3ccc(SC(F)(F)F)cc3)cc2)OC1)[C@](O)(Cn1cncn1)c1ccc(F)cc1F` [Example 13, 4-[trans-5-[[(1R,2R)-2-(2,4-Difluorophenyl)-2-hydroxy-1-methyl-3-(1H-1,2,4-triazol-1-yl)propyl]thio]-1,3-dioxan-2-yl]-4′-(trifluoromethylthio)benzanilide], 95 °C.
For `C[C@@H](S[C@H]1CO[C@H](c2ccc(C(=O)Nc3ccc(CC#N)cc3)cc2)OC1)[C@](O)(Cn1cncn1)c1ccc(F)cc1F` [Example 7, 4′-(Cyanomethyl)-4-[trans-5-[[(1R,2R)-2-(2,4-difluorophenyl)-2-hydroxy-1-methyl-3-(1H-1,2,4-triazol-1-yl)propyl]thio]-1,3-dioxan-2-yl]benzanilide] the value was 188 °C.
In turn, `CC(=O)c1ccc(NC(=O)c2ccc([C@H]3OC[C@H](S[C@H](C)[C@](O)(Cn4cncn4)c4ccc(F)cc4F)CO3)cc2)cc1` [Example 22, 4′-Acetyl-4-[trans-5-[[(1R,2R)-2-(2,4-difluorophenyl)-2-hydroxy-1-methyl-3-(1H-1,2,4-triazol-1-yl)propyl]thio]-1,3-dioxan-2-yl]benzanilide] came in with a melting point of 171 °C.
For `C[C@@H](S[C@H]1CO[C@H](c2ccc(C(=O)Nc3ccc(OC(F)(F)F)cc3)cc2)OC1)[C@](O)(Cn1cncn1)c1ccc(F)cc1F` [Example 12, 4-[trans-5-[[(1R,2R)-2-(2,4-Difluorophenyl)-2-hydroxy-1-methyl-3-(1H-1,2,4-triazol-1-yl)propyl]thio]-1,3-dioxan-2-yl]-4′-(trifluoromethoxy)benzanilide] the value was 180 °C; for `C[C@@H](S[C@H]1CO[C@H](c2ccc(C(=O)Nc3ccc(Cl)cc3)cc2)OC1)[C@](O)(Cn1cncn1)c1ccc(F)cc1F` [Example 8, 4′-Chloro-4-[trans-5-[[(1R,2R)-2-(2,4-difluorophenyl)-2-hydroxy-1-methyl-3-(1H-1,2,4-triazol-1-yl)propyl]thio]-1,3-dioxan-2-yl]benzanilide], 210 °C.
